Measured values from ChEMBL document CHEMBL1140726, “Discovery and biological evaluation of 5-aryl-2-furfuramides, potent and selective blockers of the Nav1.8 sodium channel with efficacy in models of neuropathic and inflammatory pain” (J Med Chem, 2008).

How the values were obtained:
[1] = molecular target: Sodium channel protein type 10 subunit alpha (Mus musculus, UniProt Q6QIY3); assay: Inhibition of mouse recombinant Nav 1.8 channel expressed in HEK293 cells by isotopic efflux assay; type: cell-based
[2] = molecular target: Sodium channel protein type 3 subunit alpha (Homo sapiens) (UniProt Q9NY46); assay: Inhibition of human Nav1.3 channel at 1 uM
[3] = molecular target: T1, Sodium channel protein type 10 subunit alpha (Homo sapiens, UniProt Q9Y5Y9); assay: Inhibition of human recombinant Nav 1.8 channel expressed in HEK293 cells at 3 uM; type: cell-based
[4] = molecular target: Sodium channel protein type 2 subunit alpha (Homo sapiens) (UniProt Q99250); assay: Inhibition of human Nav1.2 channel at 1 uM
[5] = Activity at rat dorsal root ganglion in inactivated state with prepulse voltage of -40 mV assessed as blockade of TTx-resistant sodium current at 1 uM by whole-cell patch clamp technique; type: functional
[6] = molecular target: Voltage-gated inwardly rectifying potassium channel KCNH2 (Homo sapiens, UniProt Q12809); assay: Inhibition of hERG potassium channel expressed in CHO cells by isotope efflux assay
[7] = molecular target: T1, Sodium channel protein type 10 subunit alpha; assay: Activity at human recombinant Nav 1.8 channel expressed in HEK293 cells in inactivated state with prepulse voltage of -40 mV assessed as blockade of TTx-resistant sodium current at 3 uM; type: cell-based
[8] = molecular target: T1, Sodium channel protein type 10 subunit alpha; assay: Inhibition of human recombinant Nav 1.8 channel expressed in HEK293 cells at 1 uM; type: cell-based
[9] = Activity at rat dorsal root ganglion in resting state with prepulse voltage of -100 mV assessed as blockade of TTx-resistant sodium current at 10 uM by whole-cell patch clamp technique; type: functional
[10] = molecular target: T1, Sodium channel protein type 10 subunit alpha; assay: Activity at human recombinant Nav 1.8 channel expressed in HEK293 cells in inactivated state with prepulse voltage of -40 mV assessed as blockade of TTx-resistant sodium current at 1 uM; type: cell-based
[11] = Activity at rat dorsal root ganglion in inactivated state with prepulse voltage of -40 mV assessed as blockade of TTx-resistant sodium current at 10 uM by whole-cell patch clamp technique; type: functional
[12] = molecular target: T2, Nav1.5 (sodium channel protein type 5 subunit alpha) (Homo sapiens, UniProt Q14524); assay: Inhibition of human Nav1.5 channel at 1 uM; conditions: human
[13] = molecular target: T1, Sodium channel protein type 10 subunit alpha; assay: Activity at human recombinant Nav 1.8 channel expressed in HEK293 cells in resting state with prepulse voltage of -100 mV assessed as blockade of TTx-resistant sodium current at 3 uM; type: cell-based
[14] = molecular target: T1, Sodium channel protein type 10 subunit alpha; assay: Activity at human recombinant Nav 1.8 channel expressed in HEK293 cells in resting state with prepulse voltage of -100 mV assessed as blockade of TTx-resistant sodium current at 1 uM; type: cell-based
[15] = Activity at rat dorsal root ganglion in resting state with prepulse voltage of -100 mV assessed as blockade of TTx-resistant sodium current at 1 uM by whole-cell patch clamp technique; type: functional
[16] = molecular target: T1, Sodium channel protein type 10 subunit alpha; assay: Inhibition of human recombinant Nav 1.8 channel expressed in HEK293 cells at 0.03 uM; type: cell-based
[17] = Activity at rat dorsal root ganglion in resting state with prepulse voltage of -100 mV assessed as blockade of TTx-resistant sodium current at 0.003 uM by whole-cell patch clamp technique; type: functional
[18] = Activity at rat dorsal root ganglion in inactivated state with prepulse voltage of -40 mV assessed as blockade of TTx-resistant sodium current at 0.03 uM by whole-cell patch clamp technique; type: functional
[19] = molecular target: T1, Sodium channel protein type 10 subunit alpha; assay: Activity at human recombinant Nav 1.8 channel expressed in HEK293 cells in resting state with prepulse voltage of -100 mV assessed as blockade of TTx-resistant sodium current at 0.03 uM; type: cell-based
[20] = molecular target: Sodium channel protein type 3 subunit alpha (Homo sapiens) (UniProt Q9NY46); assay: Inhibition of human Nav1.3 channel at 0.3 uM
[21] = molecular target: T2, Nav1.5 (sodium channel protein type 5 subunit alpha); assay: Inhibition of human Nav1.5 channel at 0.03 uM
[22] = molecular target: T1, Sodium channel protein type 10 subunit alpha; assay: Activity at human recombinant Nav 1.8 channel expressed in HEK293 cells in inactivated state with prepulse voltage of -40 mV assessed as blockade of TTx-resistant sodium current at 0.001 uM; type: cell-based
[23] = molecular target: Sodium channel protein type 9 subunit alpha (Homo sapiens) (UniProt Q15858); assay: Inhibition of human Nav1.7 channel at 0.3 uM
[24] = Activity at rat dorsal root ganglion in inactivated state with prepulse voltage of -40 mV assessed as blockade of TTx-resistant sodium current at 0.003 uM by whole-cell patch clamp technique; type: functional
[25] = molecular target: Sodium channel protein type 2 subunit alpha (Homo sapiens) (UniProt Q99250); assay: Inhibition of human Nav1.2 channel at 0.3 uM
[26] = molecular target: T2, Nav1.5 (sodium channel protein type 5 subunit alpha); assay: Inhibition of human Nav1.5 channel at 0.3 uM
[27] = Activity at rat dorsal root ganglion in resting state with prepulse voltage of -100 mV assessed as blockade of TTx-resistant sodium current at 0.03 uM by whole-cell patch clamp technique; type: functional
[28] = molecular target: T1, Sodium channel protein type 10 subunit alpha; assay: Inhibition of human recombinant Nav 1.8 channel expressed in HEK293 cells at 0.001 uM; type: cell-based
[29] = molecular target: T1, Sodium channel protein type 10 subunit alpha; assay: Activity at human recombinant Nav 1.8 channel expressed in HEK293 cells in inactivated state with prepulse voltage of -40 mV assessed as blockade of TTx-resistant sodium current at 0.03 uM; type: cell-based
[30] = molecular target: T1, Sodium channel protein type 10 subunit alpha; assay: Activity at human recombinant Nav 1.8 channel expressed in HEK293 cells in resting state with prepulse voltage of -100 mV assessed as blockade of TTx-resistant sodium current at 0.001 uM; type: cell-based
[31] = molecular target: Sodium channel protein type 2 subunit alpha (Homo sapiens) (UniProt Q99250); assay: Inhibition of human Nav1.2 channel at 0.03 uM
[32] = molecular target: T1, Sodium channel protein type 10 subunit alpha; assay: Activity at human recombinant Nav 1.8 channel expressed in HEK293 cells in resting state with prepulse voltage of -100 mV assessed as blockade of TTx-resistant sodium current at 0.003 uM; type: cell-based
[33] = molecular target: Sodium channel protein type 2 subunit alpha (Homo sapiens) (UniProt Q99250); assay: Inhibition of human Nav1.2 channel at 0.1 uM
[34] = molecular target: T2, Nav1.5 (sodium channel protein type 5 subunit alpha); assay: Inhibition of human Nav1.5 channel at 0.1 uM
[35] = Activity at rat dorsal root ganglion in resting state with prepulse voltage of -100 mV assessed as blockade of TTx-resistant sodium current at 0.1 uM by whole-cell patch clamp technique; type: functional
[36] = molecular target: T1, Sodium channel protein type 10 subunit alpha; assay: Inhibition of human recombinant Nav 1.8 channel expressed in HEK293 cells at 0.003 uM; type: cell-based
[37] = Activity at rat dorsal root ganglion in inactivated state with prepulse voltage of -40 mV assessed as blockade of TTx-resistant sodium current at 0.3 uM by whole-cell patch clamp technique; type: functional
[38] = Activity at rat dorsal root ganglion in resting state with prepulse voltage of -100 mV assessed as blockade of TTx-resistant sodium current at 0.3 uM by whole-cell patch clamp technique; type: functional
[39] = Activity at rat dorsal root ganglion in inactivated state with prepulse voltage of -40 mV assessed as blockade of TTx-resistant sodium current at 0.1 uM by whole-cell patch clamp technique; type: functional
[40] = molecular target: T1, Sodium channel protein type 10 subunit alpha; assay: Activity at human recombinant Nav 1.8 channel expressed in HEK293 cells in inactivated state with prepulse voltage of -40 mV assessed as blockade of TTx-resistant sodium current at 0.003 uM; type: cell-based

T2 sequence (Q14524 whole entry): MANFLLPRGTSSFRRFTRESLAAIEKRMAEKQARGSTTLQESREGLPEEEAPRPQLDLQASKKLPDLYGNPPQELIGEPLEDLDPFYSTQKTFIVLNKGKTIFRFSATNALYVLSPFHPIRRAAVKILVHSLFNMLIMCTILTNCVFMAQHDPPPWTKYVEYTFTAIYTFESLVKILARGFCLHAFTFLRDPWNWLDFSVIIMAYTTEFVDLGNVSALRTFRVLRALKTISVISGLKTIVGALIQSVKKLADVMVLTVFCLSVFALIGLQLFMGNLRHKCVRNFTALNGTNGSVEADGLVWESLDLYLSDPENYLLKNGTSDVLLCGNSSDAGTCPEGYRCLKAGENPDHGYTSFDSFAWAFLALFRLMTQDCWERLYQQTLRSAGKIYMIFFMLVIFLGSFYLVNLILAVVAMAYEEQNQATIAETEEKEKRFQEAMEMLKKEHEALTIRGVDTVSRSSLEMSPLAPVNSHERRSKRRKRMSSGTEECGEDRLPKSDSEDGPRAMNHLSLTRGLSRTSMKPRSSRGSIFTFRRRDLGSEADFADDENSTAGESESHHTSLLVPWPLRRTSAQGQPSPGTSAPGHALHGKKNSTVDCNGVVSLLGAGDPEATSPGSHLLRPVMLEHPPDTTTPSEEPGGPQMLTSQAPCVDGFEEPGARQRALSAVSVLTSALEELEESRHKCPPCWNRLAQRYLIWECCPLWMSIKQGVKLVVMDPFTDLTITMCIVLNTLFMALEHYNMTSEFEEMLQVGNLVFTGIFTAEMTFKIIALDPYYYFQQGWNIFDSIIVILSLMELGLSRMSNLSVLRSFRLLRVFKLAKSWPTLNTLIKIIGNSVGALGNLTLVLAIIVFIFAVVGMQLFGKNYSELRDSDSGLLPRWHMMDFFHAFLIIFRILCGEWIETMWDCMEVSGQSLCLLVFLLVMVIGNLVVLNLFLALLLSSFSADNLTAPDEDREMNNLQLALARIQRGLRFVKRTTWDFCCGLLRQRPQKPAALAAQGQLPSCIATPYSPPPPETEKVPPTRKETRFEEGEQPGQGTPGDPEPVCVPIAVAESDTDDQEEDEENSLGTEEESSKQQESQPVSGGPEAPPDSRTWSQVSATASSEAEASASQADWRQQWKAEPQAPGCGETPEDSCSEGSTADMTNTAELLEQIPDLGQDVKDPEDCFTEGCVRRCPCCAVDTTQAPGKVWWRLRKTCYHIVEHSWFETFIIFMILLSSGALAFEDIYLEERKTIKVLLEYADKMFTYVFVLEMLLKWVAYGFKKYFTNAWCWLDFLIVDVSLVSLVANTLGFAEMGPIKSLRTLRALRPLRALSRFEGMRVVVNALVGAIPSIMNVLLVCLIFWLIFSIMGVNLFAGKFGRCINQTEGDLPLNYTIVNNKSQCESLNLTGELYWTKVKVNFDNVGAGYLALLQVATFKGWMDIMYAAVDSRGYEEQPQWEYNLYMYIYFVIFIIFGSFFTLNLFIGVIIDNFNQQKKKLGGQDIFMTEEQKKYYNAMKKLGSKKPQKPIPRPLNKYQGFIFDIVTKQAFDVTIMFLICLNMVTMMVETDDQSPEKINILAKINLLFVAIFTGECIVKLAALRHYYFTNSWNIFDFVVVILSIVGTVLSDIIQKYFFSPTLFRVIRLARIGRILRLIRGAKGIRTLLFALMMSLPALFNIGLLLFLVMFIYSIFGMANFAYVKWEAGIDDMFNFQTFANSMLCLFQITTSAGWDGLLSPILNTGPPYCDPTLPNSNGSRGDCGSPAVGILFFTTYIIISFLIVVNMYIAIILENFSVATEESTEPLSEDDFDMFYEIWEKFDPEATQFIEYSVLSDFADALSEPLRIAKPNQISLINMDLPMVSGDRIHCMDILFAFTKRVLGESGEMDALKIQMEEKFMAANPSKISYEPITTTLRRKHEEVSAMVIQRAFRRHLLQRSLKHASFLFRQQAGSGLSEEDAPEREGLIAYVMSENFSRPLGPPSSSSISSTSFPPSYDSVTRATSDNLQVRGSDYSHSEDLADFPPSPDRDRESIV
Sequence of Sodium channel protein type 10 subunit alpha (Mus musculus, UniProt Q6QIY3) (Q6QIY3 whole entry): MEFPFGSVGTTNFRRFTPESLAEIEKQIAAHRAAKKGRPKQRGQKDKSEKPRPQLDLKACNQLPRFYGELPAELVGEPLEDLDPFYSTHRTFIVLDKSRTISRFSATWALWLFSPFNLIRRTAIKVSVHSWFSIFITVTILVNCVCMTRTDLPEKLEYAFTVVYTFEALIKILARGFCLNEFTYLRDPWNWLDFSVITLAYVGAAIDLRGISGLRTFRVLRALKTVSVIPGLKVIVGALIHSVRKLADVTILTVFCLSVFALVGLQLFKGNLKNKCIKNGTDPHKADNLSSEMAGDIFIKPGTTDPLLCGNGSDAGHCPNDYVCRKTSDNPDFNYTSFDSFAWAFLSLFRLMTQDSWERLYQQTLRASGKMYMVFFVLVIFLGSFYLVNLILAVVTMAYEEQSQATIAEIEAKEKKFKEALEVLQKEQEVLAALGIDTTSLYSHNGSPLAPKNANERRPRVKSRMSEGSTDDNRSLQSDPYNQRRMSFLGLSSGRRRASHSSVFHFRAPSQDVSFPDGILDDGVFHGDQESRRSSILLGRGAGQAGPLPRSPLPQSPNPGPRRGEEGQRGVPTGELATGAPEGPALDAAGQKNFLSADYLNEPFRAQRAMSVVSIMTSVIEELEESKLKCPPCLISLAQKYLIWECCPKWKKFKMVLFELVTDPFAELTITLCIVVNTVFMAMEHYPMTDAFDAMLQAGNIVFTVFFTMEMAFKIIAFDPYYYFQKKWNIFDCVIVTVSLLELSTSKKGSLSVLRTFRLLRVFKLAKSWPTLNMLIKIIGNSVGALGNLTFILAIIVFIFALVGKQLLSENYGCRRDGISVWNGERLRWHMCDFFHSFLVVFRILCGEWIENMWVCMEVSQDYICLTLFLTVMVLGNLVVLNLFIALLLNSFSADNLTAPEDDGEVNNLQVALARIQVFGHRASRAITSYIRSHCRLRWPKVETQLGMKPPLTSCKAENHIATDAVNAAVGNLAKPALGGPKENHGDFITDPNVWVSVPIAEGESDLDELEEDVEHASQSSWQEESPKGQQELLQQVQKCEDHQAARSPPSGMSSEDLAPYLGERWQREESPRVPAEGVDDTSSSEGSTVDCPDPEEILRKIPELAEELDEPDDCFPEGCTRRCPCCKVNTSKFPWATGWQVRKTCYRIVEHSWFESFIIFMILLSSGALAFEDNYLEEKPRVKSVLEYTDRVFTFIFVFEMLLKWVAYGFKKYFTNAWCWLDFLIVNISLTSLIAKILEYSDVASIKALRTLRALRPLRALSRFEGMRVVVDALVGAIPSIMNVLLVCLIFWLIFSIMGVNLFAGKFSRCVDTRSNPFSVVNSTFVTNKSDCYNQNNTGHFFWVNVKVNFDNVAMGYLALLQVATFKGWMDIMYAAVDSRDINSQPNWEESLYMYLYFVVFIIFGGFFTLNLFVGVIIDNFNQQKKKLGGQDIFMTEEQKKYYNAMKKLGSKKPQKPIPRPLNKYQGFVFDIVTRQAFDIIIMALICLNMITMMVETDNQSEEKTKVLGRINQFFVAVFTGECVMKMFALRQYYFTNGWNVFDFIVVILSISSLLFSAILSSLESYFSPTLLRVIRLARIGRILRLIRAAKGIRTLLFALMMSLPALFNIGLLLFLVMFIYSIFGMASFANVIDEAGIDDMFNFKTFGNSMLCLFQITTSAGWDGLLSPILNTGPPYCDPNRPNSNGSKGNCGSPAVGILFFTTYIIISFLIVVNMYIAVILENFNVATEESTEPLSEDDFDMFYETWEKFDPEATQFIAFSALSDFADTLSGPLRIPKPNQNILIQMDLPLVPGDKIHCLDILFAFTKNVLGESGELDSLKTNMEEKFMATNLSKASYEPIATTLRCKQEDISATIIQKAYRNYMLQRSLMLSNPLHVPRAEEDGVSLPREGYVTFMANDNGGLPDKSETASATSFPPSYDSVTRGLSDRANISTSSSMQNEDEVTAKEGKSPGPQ
Sequence of Voltage-gated inwardly rectifying potassium channel KCNH2 (Q12809 whole entry): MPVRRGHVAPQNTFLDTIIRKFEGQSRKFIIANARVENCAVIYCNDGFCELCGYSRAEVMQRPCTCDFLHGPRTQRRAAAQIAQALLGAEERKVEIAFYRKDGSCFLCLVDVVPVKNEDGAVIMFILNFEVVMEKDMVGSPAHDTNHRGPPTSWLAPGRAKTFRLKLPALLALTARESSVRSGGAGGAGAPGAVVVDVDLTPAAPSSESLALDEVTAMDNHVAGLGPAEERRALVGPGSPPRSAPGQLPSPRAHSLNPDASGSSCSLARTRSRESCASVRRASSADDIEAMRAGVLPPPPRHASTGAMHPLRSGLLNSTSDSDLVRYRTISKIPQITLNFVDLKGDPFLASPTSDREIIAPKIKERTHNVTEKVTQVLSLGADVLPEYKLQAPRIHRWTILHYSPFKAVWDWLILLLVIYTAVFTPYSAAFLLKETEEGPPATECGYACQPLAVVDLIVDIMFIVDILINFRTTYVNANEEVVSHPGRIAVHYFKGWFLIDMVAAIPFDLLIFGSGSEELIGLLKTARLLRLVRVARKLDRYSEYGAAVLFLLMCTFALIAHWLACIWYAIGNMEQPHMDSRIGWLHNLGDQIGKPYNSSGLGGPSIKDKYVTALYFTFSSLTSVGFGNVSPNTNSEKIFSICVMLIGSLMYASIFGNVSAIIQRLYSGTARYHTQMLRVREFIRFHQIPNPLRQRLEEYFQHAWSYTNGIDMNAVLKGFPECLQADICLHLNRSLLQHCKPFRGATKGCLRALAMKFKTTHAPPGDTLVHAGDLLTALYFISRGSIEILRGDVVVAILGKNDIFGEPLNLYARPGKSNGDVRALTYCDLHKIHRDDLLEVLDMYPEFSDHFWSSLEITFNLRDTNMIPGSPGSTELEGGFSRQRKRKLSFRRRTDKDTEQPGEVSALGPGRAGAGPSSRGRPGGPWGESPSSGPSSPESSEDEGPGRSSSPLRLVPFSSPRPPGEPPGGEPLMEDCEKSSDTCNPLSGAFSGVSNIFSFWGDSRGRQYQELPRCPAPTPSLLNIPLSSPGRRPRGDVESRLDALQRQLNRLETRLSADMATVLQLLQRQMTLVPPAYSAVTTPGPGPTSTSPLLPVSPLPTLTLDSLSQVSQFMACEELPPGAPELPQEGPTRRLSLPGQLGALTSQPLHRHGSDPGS

O=C(Nc1cccc(N2CCOCC2)c1)c1ccc(-c2ccc(Cl)cc2)o1
IC50 [1]: 4.6 µM

N#CCc1cccc(NC(=O)c2ccc(-c3ccc(Cl)cc3)o2)c1
IC50 [1]: 1.7 µM

Cc1ccnc(NC(=O)c2ccc(-c3ccc(Cl)cc3)o2)c1
inhibition [2]: 5%
inhibition [3]: 81%
inhibition [4]: 12%
inhibition at 1 µM [5]: 36%
IC50 [6]: > 30 µM
inhibition [7]: 81%
inhibition [8]: 42%
inhibition at 10 µM [9]: 88%
inhibition [10]: 42%
inhibition at 10 µM [11]: 88%
inhibition at 1 µM [12]: 24%
inhibition [13]: 83%
inhibition [14]: 58%
inhibition at 1 µM [15]: 9%
IC50 [1]: 0.96 µM

Cc1cccc(NC(=O)c2coc(-c3ccc(Cl)cc3)c2)c1
IC50 [1]: 20 µM

Cc1cccc(N(C)C(=O)c2ccc(-c3ccc(Cl)cc3)o2)c1
IC50 [1]: 3.4 µM

Cc1cccc(N/C(=N/C#N)c2ccc(-c3ccc(Cl)cc3)o2)c1
inhibition [16]: 99%
inhibition at 0.003 µM [17]: 22%
inhibition at 0.03 µM [18]: 71%
inhibition [19]: 94%
inhibition [20]: 24%
inhibition at 0.03 µM [21]: 32%
inhibition [22]: 76%
inhibition [23]: 70%
IC50 [6]: > 30 µM
inhibition at 0.003 µM [24]: 51%
inhibition [25]: 94%
inhibition at 0.3 µM [26]: 69%
inhibition at 0.03 µM [27]: 45%
inhibition [28]: 76%
inhibition [29]: 99%
inhibition [30]: 46%
inhibition [31]: 91%
IC50 [1]: 0.03 µM

Cc1cccc(NC(=O)c2cc(-c3ccc(Cl)cc3)co2)c1
IC50 [1]: 5.3 µM

Cc1cccc(NC(=O)c2ccc(-c3ccc(S(C)(=O)=O)cc3)o2)c1
IC50 [1]: > 30 µM

Cc1cccc(NC(=O)c2ccc(-c3cccc(C(F)(F)F)c3)o2)c1
IC50 [1]: 7.5 µM

Cc1cccc(NC(=O)c2ccc(-c3ccc(OC(F)(F)F)cc3)o2)c1
inhibition [32]: 33%
inhibition [33]: 47%
inhibition at 0.1 µM [34]: 52%
inhibition at 0.1 µM [35]: 25%
inhibition [22]: 40%
inhibition [4]: 84%
IC50 [6]: > 30 µM
inhibition [36]: 73%
inhibition at 0.3 µM [37]: 63%
inhibition [30]: 7%
inhibition at 1 µM [12]: 87%
inhibition at 0.3 µM [38]: 30%
inhibition at 0.1 µM [39]: 40%
IC50 [1]: 0.29 µM
inhibition [40]: 73%

Cc1ccccc1CNC(=O)c1ccc(-c2ccc(Cl)cc2)o1
IC50 [1]: 1.1 µM

O=C(NCCc1ccccc1Cl)c1ccc(-c2ccc(Cl)cc2)o1
IC50 [1]: 1.9 µM
